From US5296496A, “2-saccharinylmethyl phosphates, phosphonates and phosphinates useful as proteolytic enzyme inhibitors and compositions and method of use thereof” (Sterling Winthrop Inc., priority 1992, dated 1994)

Biological target: T1, human leukocyte elastase (HLE) (Homo sapiens, UniProt P08246)
T1 sequence (P08246 30-267): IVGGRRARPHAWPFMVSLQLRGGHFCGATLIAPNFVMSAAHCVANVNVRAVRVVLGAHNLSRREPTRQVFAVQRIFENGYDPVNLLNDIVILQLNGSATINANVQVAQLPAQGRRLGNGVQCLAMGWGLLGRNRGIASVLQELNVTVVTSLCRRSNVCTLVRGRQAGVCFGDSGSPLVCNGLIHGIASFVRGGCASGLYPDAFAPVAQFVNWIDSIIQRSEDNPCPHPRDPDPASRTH
Experiment: Inhibition constant Ki* of human leukocyte elastase (HLE), calculated as koff/kon
Type: biochemical
Details: unit inferred
Experimental: Thus, instead of measuring a Ki, a Ki * is calculated which is defined as the ratio of the koff /kon, the rate of reactivation of the enzyme to the rate of inactivation of the enzyme. The values of koff and kon are measured and Ki * is then calculated.
The rate of inactivation, kon, of enzymatic activity was determined for the compounds tested by measuring the enzyme activity of an aliquot of the respective enzyme as a function of time after addition of the test compound. […] The rate of inactivation is then equal to [formula] where [I] is the concentration of the inhibiting compound.
The reactivation constant, koff, is similarly determined, and the inhibition constant, Ki *, is then calculated as

Work on `CCOP(=O)(OCC)OCN1C(=O)c2c(C(C)C)cc(OC)cc2S1(=O)=O` [Example 13] yielded a Ki of 0.035 nM.
